Laboratory results as given in paper PMC8424644, “Thermodynamic Stability and Speciation of Ga(III) and Zr(IV) Complexes with High-Denticity Hydroxamate Chelators” (Inorganic Chemistry, 2021).
Marks after values point to notes of the source that are not given here.

Experiments:
Format in all cases: physicochemical
[1] = Ligand protonation constants, potentiometric titrations
From the text: The metal affinity of a ligand depends on its acid-base properties; therefore, the protonation equilibria of […] and […] were first investigated. The proton-dissociation processes of the ligands were followed by potentiometric titrations in the pH range 2-11. The hydrolytic stability of the ligands was monitored by a second titration of the same sample with NaOH, following back-acidification of the initially titrated sample. […] As was previously reported in the example of α- and β-alanine hydroxamic acids, the amino group may be more acidic than the hydroxamic group, or vice versa. […] However, such a precise analysis is not needed for the determination of the stability of […]-metal complexes and therefore was not performed. […] The potentiometric titrations of ligands and their complexes were carried out using a Titrando 905 (Metrohm) automatic titrator system, equipped with a combined glass electrode (Mettler Toledo, InLab Semi-Micro, with […] Polymer filling) and a 800 Dosino dosing system, equipped with a a 2 mL micro buret. The ionic strength was fixed at I = 0.1 M with NaClO4. The electrode was calibrated daily in terms of hydrogen ion concentration using HClO4 (0.1 M) with CO2-free NaOH solutions (0.1 M).[76] A stream of high-purity argon, presaturated with water vapor, was passed over the surface of the solution cell, the cell was filled with 50 mL of the studied solution, and the system was thermostated at 25.0 ± 0.2 °C. At least three titrations were performed for each system, with a starting concentration of the ligand of 1 mM and a 1:1 metal to ligand molar ratio with a 10% excess of the ligand in the pH range 2-11. The purity and exact concentration of the ligand solutions were determined using the Gran method.[77] Special care was taken to ensure that complete equilibration was attained. […] The potentiometric data were refined with the […][78] and […][79] programs, which use nonlinear least-squares methods.

[2] = Fe(III)–Ga(III) metal–metal competition UV–vis titrations; conditions: Ga(III)-L + Fe(III) competition titration, pH 1.5; judged to carry a greater error, not retained
Protocol: Assuming the domination of the [GaHL1]^+ complex below pH 2, its stability was determined by metal–metal competition titrations, (i) Fe(III)-H3L1 + Ga(III) and (ii) Ga(III)-H3L1 + Fe(III), both performed at pH 1.5. This pH was chosen in order to prevent the hydrolysis of the free metal ions and decomposition of the ligand, which is common for hydroxamic acids at a very acidic pH.[37],[51] Upon addition of Ga(III) (up to 600 equiv) to the Fe(III)-H3L1 solution, the UV–vis band of [FeHL1]^+ (λmax = 470 nm, Figure 2a) slowly disappeared as a result of the [GaHL1]^+ complex formation. […]
For the Ga(III)-H4L2 system, [GaH2L2]^+ was assumed to be the most abundant species at pH 1.5, and its stability was again determined via (i) Fe(III)-H4L2 + Ga(III) and (ii) Ga(III)-H4L2 + Fe(III) titrations (Figure S8). […]
For the Ga(III)-H3L4 system, [GaHL4]^+ was assumed to be the major complex at pH 1.5, and its stability was determined via an Fe(III)-H3L4 + Ga(III) competition titration (Figure S9). […]
In order to calculate the stability constants of the investigated complexes, several competitive titrations were performed. […] After preparation, each solution was allowed to equilibrate for about 1 h, and then its UV–vis spectrum was recorded. The vials were kept in the dark, and the absorbance was measured again after 24, 48, and 120 h. […]

[3] = Fe(III)-L + Zr(IV)-NTA metal–metal competition UV–vis titrations; conditions: log β[ZrL2] vs log β[ZrL1]
[4] = potentiometric titrations, 25 °C, I = 0.1 M NaClO4

Row | log K LH2 (ligand protonation) [1, 4] | log K LH3 (ligand protonation) [1, 4] | log K LH (ligand protonation) [1, 4] | log β LH2 (ligand protonation) [1, 4] | log β LH3 (ligand protonation) [1, 4] | log β LH (ligand protonation) [1, 4] | log β [GaHL] [2] | protonation constant of the amino group (log K) ([1]; not detectable in the experimental pH range 2–11, assumed on the basis of DFOB) | log K LH4 (ligand protonation) [1, 4] | log β LH4 (ligand protonation) [1, 4] | log β [GaH2L] [2] | increase in log β of the Zr(IV) complex with respect to Zr(IV)-H3L1 [3] | Structure (SMILES)
1 | 9.24 ^d | 8.31 ^d | 9.89 ^d | 19.13(1) ^d | 27.44(1) ^d | 9.89(1) ^d | 28.3(6) |  |  |  |  |  | O=C1CCCN(O)C(=O)CCCNC(=O)CCCN(O)C(=O)CCCNC(=O)CCCN(O)C(=O)CCCN1 [H3L1, 1,11,21-Trihydroxy-1,6,11,16,21,26-hexaazacyclotriacontane-2,7,12,17,22,27-hexaone]
2 | 9.59 ^d | 8.94 ^d | 10.06 ^d | 19.65(1) ^d | 28.59(1) ^d | 10.06(1) ^d |  | > 11 | 8.18 ^d | 36.77(1) ^d | 39.06(4) | 8.5 orders of magnitude | N[C@H]1CCCCNC(=O)CCCN(O)C(=O)CCCNC(=O)CCCN(O)C(=O)CCCNC(=O)CCCN(O)C(=O)CCCNC(=O)CCCN(O)C(=O)CCCNC1=O [H4L2, (S)-43-Amino-6,16,26,36-tetrahydroxy-1,6,11,16,21,26,31,36,41-nonaazacycloheptatetracontane-2,7,12,17,22,27,32,37,42-nonaone]
